According to patent US20260297042A1, “BIARYLAMIDE DERIVATIVES AND THEIR USE AS PKMYT1 INHIBITORS” (CANCER RESEARCH TECHNOLOGY LIMITED, priority 2023, published 2026):

What was measured:
KYSE-30 cells = test: Cancer cell line proliferation assay, ATP-based cell viability (Cell Titre Glow), KYSE-30 (normal CCNE1); settings: Homo sapiens, KYSE-30 cells (normal CCNE1), concentration that achieves 50% cell growth proliferation inhibition, read-out: KYSE30 Gl50
Description: (§1) Cancer cell lines with either normal (KYSE-30) or amplified CCNE1 expression (OVCAR 3 —ovarian cancer) were evaluated for their sensitivity to PKMYT1 inhibitors using Cell Titre Glow assay (Promega G7573) as endpoint to assess cell proliferation. The luminescence signal was read on a PHERAStar FS microplate reader (BMG Labtech). Data analysis was performed using Microsoft Excel® and Gl50 (concentration that achieves 50% cell growth proliferation inhibition) estimates generated with GraphPad Prism v9.

Human PKMYT1 = target: T1, Human PKMYT1 (Homo sapiens, UniProt Q99640); test: PKMYT1 biochemical ADP-Glo enzymatic assay; settings: ADP-Glo; 15 nM PKMYT1 kinase domain, 500 µM ATP, 60 minutes at 26° C.; banded
T1 construct: Human PKMYT1 75-362 was cloned as a TEV cleavable 6xHis fusion; 6xHis (TEV cleavable) (cleaved yes); made in house; host or cells: bacterial cells
T1 sequence (Q99640 75-362): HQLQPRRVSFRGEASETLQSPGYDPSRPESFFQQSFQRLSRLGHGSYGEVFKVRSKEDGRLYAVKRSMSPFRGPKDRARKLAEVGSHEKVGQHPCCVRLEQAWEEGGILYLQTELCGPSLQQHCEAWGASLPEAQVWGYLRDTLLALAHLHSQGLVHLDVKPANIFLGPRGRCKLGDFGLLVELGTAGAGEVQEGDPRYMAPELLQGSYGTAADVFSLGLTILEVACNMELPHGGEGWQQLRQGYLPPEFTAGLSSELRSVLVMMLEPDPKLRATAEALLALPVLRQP
In short: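 Luminescent ADP-Glo Max read-out of ADP produced by 15 nM PKMYT1 (residues 75-362, bacterial, His-tag removed) from 500 µM ATP without peptide substrate. Reaction: 50 mM HEPES pH 7.5, 10 mM MgCl2, 1 mM EGTA, 0.01% Brij-35, 60 min, 26 °C. IC50 values fitted from 10-point curves.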

WEE1 = target: T2, WEE1 (Homo sapiens, UniProt P30291); test: Selectivity versus WEE1 assay (ADP-Glo enzymatic assay); type: biochemical; settings: banded; for IC50: ADP-Glo, 15 nM WEE1, 60 minutes at 26° C.; for PKMYT1 vs. WEE1 selectivity: fold difference in selectivity for PKMYT1 over WEE1, ">N" = at least in this band but could be higher
T2 construct: purchased Thermo Fisher PR7373A
T2 sequence (P30291 whole entry): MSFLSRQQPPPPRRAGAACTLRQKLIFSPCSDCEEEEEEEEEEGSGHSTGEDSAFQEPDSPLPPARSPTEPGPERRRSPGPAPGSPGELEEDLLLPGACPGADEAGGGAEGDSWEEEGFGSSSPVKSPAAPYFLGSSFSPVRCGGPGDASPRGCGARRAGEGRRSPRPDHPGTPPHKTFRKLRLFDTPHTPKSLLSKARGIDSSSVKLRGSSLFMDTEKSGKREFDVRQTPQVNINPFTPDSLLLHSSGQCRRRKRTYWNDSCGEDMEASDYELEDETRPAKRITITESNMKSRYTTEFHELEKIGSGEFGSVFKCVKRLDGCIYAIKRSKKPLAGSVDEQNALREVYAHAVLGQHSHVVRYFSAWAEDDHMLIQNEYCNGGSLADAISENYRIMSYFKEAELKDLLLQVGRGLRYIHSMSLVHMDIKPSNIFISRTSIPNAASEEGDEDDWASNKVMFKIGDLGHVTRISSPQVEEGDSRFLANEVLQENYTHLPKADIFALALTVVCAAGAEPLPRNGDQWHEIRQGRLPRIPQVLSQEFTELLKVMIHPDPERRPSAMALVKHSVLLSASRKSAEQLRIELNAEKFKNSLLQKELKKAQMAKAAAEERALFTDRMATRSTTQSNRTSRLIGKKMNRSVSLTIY
In short: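 ADP-Glo luminescence read-out after a 60 min reaction at 26° C, initiated by 30 µM ATP, with 15 nM enzyme in HEPES pH 7.5/MgCl2/EGTA/Brij-35 buffer containing 1% DMSO. Replicate IC50 values had to agree within 3-fold and fits needed r2 >0.9.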

OVCAR 3 cells = test: Cancer cell line proliferation assay, ATP-based cell viability (Cell Titre Glow), OVCAR 3 (CCNE1-amplified); settings: KYSE30 (normal CCNE1) GI50 vs. OVCAR 3 (CCNE1-amplified) GI50
Description: as §1

Row | SMILES | GI50 (KYSE-30 cells) | IC50 (Human PKMYT1) | IC50 (WEE1) | PKMYT1 vs. WEE1 selectivity (WEE1) | Selectivity ratio KYSE30 Gl50 vs. OVCAR3 Gl50 (OVCAR 3 cells)
1 | Cc1cc(Nc2ncc(C(=O)Nc3c(C)ccc(O)c3C)s2)nc(-c2ccc(F)cc2)n1 [BAA-307, 2-((2-(4-fluorophenyl)-6-methylpyrimidin-4-yl)amino)-N-(3-hydroxy-2,6-dimethylphenyl)thiazole-5-carboxamide] | 500 to 5000 nM | 50 to 1000 nM | > 11000 nM | Y (1000-5000 fold) | Y (>20 fold)
2 | Cc1ccc(O)c(C)c1NC(=O)c1cnc(Nc2cccc(-c3cc(F)cc(F)c3)n2)s1 [BAA-315, 2-((6-(3,5-difluorophenyl)pyridin-2-yl)amino)-N-(3-hydroxy-2,6-dimethylphenyl)thiazole-5-carboxamide] | 500 to 5000 nM | < 50 nM | > 11000 nM | Y (1000-5000 fold) | Y (>20 fold)
3 | Cc1ccc(O)c(C)c1NC(=O)c1cnc(Nc2cc(C(F)(F)F)nc(NCCC(C)(C)C)n2)s1 [BAA-322, 2-((2-((3,3-dimethylbutyl)amino)-6-(trifluoromethyl)pyrimidin-4-yl)amino)-N-(3-hydroxy-2,6-dimethylphenyl)thiazole-5-carboxamide] | 500 to 5000 nM | 50 to 1000 nM | > 11000 nM | X (100-<1000 fold) | Y (>20 fold)
4 | Cc1ccc(NC(=O)OC(C)(C)C)nc1Nc1ncc(C(=O)Nc2c(C)ccc(O)c2C)s1 [BAA-329, tert-butyl (6-((5-((3-hydroxy-2,6-dimethylphenyl)carbamoyl)thiazol-2-yl)amino)-5-methylpyridin-2-yl)carbamate] | 500 to 5000 nM | 50 to 1000 nM | > 11000 nM | Y (1000-5000 fold) | X (3-20 fold)
5 | COc1ccc(NC(=O)C(C)(C)C)nc1Nc1ncc(C(=O)Nc2c(C)ccc(O)c2C)s1.Cl [BAA-330, N-(3-Hydroxy-2.6-dimethylphenyl)-2-((3-methoxy-6-pivalamidopyridin-2-yl)amino)thiazole-5-carboxamide hydrochloride] | 500 to 5000 nM | < 50 nM | > 11000 nM | Y (1000-5000 fold) | Y (>20 fold)
6 | Cc1ccc(NS(=O)(=O)C(C)(C)C)nc1Nc1ncc(C(=O)Nc2c(C)ccc(O)c2C)s1.Cl [BAA-335, 2-((6-((1,1-dimethylethyl)sulfonamido)-3-methylpyridin-2-yl)amino)-N-(3-hydroxy-2,6-dimethylphenyl)thiazole-5-carboxamide hydrochloride] | 500 to 5000 nM | < 50 nM | > 11000 nM | Y (1000-5000 fold) | Y (>20 fold)
7 | Cc1ccc(NC(=O)NC(C)(C)C)nc1Nc1ncc(C(=O)Nc2c(C)ccc(O)c2C)s1.Cl [BAA-336, 2-((6-(3-(tert-butyl)ureido)-3-methylpyridin-2-yl)amino)-N-(3-hydroxy-2,6-dimethylphenyl)thiazole-5-carboxamide hydrochloride] | > 5000 nM | 50 to 1000 nM | > 11000 nM | X (100-<1000 fold) | Y (>20 fold)
8 | Cc1ccc(O)c(C)c1NC(=O)c1cnc(Nc2cccc(NC(=O)C(C)(C)C)n2)s1 [BAA-339, N-(3-Hydroxy-2.6-dimethylphenyl)-2-((6-pivalamidopyridin-2-yl)amino)thiazole-5-carboxamide] | 500 to 5000 nM | < 50 nM | > 11000 nM | Y (1000-5000 fold) | Y (>20 fold)
9 | C=CC(=O)Nc1ccc(C)c(Nc2ncc(C(=O)Nc3c(C)ccc(O)c3C)s2)n1 [BAA-341, 2-((6-Acrylamido-3-methylpyridin-2-yl)amino)-N-(3-hydroxy-2,6-dimethylphenyl)thiazole-5-carboxamide] | 500 to 5000 nM | < 50 nM | 1000 to 11000 nM | X (100-<1000 fold) | X (3-20 fold)
10 | Cc1cn(-c2ccc(C(F)(F)F)nc2)nc1Nc1ncc(C(=O)Nc2c(C)ccc(O)c2C)s1 [BAA-367, N-(3-hydroxy-2,6-dimethylphenyl)-2-((4-methyl-1-(6-(trifluoromethyl)pyridin-3-yl)-1H-pyrazol-3-yl)amino)thiazole-5-carboxamide] | > 5000 nM | 50 to 1000 nM | > 11000 nM | X (100-<1000 fold) | Y (>20 fold)
11 | Cc1cn(-c2cccc(F)c2)nc1Nc1ncc(C(=O)Nc2c(C)ccc(O)c2C)s1 [BAA-368, 2-((1-(3-fluorophenyl)-4-methyl-1H-pyrazol-3-yl)amino)-N-(3-hydroxy-2,6-dimethylphenyl)thiazole-5-carboxamide] | > 5000 nM | < 50 nM | > 11000 nM | Y (1000-5000 fold) | Y (>20 fold)
12 | CCOc1ccc(-n2cc(C)c(Nc3ncc(C(=O)Nc4c(C)ccc(O)c4C)s3)n2)cn1 [BAA-369, 2-((1-(6-ethoxypyridin-3-yl)-4-methyl-1H-pyrazol-3-yl)amino)-N-(3-hydroxy-2,6-dimethylphenyl)thiazole-5-carboxamide] | > 5000 nM | 50 to 1000 nM | > 11000 nM | X (100-<1000 fold) | Y (>20 fold)
13 | Cc1cn(-c2cccc(C(F)(F)F)c2)nc1Nc1ncc(C(=O)Nc2c(C)ccc(O)c2C)s1 [BAA-370, N-(3-hydroxy-2,6-dimethylphenyl)-2-((4-methyl-1-(3-(trifluoromethyl)phenyl)-1H-pyrazol-3-yl)amino)thiazole-5-carboxamide] | 500 to 5000 nM | < 50 nM | > 11000 nM | X (100-<1000 fold) | X (3-20 fold)
14 | Cc1cn(-c2cccnc2)nc1Nc1ncc(C(=O)Nc2c(C)ccc(O)c2C)s1 [BAA-371, N-(3-hydroxy-2,6-dimethylphenyl)-2-((4-methyl-1-(pyridin-3-yl)-1H-pyrazol-3-yl)amino)thiazole-5-carboxamide] | > 5000 nM | < 50 nM | 1000 to 11000 nM | X (100-<1000 fold) | Y (>20 fold)
15 | Cc1cn(-c2ccncc2)nc1Nc1ncc(C(=O)Nc2c(C)ccc(O)c2C)s1 [BAA-372, N-(3-hydroxy-2,6-dimethylphenyl)-2-((4-methyl-1-(pyridin-4-yl)-1H-pyrazol-3-yl)amino)thiazole-5-carboxamide] | > 5000 nM | < 50 nM | 50 to 1000 nM | W (10-<100 fold) | Y (>20 fold)
16 | Cc1cn(-c2ccc(Cl)cn2)nc1Nc1ncc(C(=O)Nc2c(C)ccc(O)c2C)s1 [BAA-376, 2-((1-(5-Chloropyridin-2-yl)-4-methyl-1H-pyrazol-3-yl)amino)-N-(3-hydroxy-2,6-dimethylphenyl)thiazole-5-carboxamide] | 500 to 5000 nM | 50 to 1000 nM | > 11000 nM | X (100-<1000 fold) | Y (>20 fold)
